Laboratory results reported in PubChem BioAssay AID330 (DTP/NCI, 2004).
Several values for one entry are separate records, joined by “and”; a condition that tells them apart may be missing. Equal entries are not always repeated. Toxic doses and inconclusive results are not listed. Rule for the calls: active = survival T/C of 150% or more; inactive = T/C below 125% in these data.

Test system: P388 leukemia ip, CD2F1 mice, survival T/C
Experiment: NCI In Vivo Anticancer Drug Screen. Data for tumor model P388 Leukemia (intraperitoneal) in CD2F1 (CDF1) mice
Settings: endpoint: median survival time, higher = longer survival
How it was run: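 Mice carrying the transplanted tumor received test compound or vehicle. Survival was recorded in each group, and the value is the treated-group measurement divided by that of the vehicle-treated control group.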

[1] = dose: 60.0 mg/kg/injection, schedule: Q01DX005 (ip), vehicle: saline
[2] = dose: 120.0 mg/kg/injection, schedule: Q01DX005 (ip), vehicle: saline
[3] = dose: 240.0 mg/kg/injection, schedule: Q01DX005 (ip), vehicle: saline
[4] = dose: 100.0 mg/kg/injection, schedule: Q04DX003 (ip), vehicle: saline with Tween-80
[5] = dose: 200.0 mg/kg/injection, schedule: Q04DX003 (ip), vehicle: saline with Tween-80
[6] = dose: 400.0 mg/kg/injection, schedule: Q04DX003 (ip), vehicle: saline with Tween-80
[7] = dose: 2.5 mg/kg/injection, schedule: Q01DX009 (ip), vehicle: saline
[8] = dose: 5.0 mg/kg/injection, schedule: Q01DX009 (ip), vehicle: saline
[9] = dose: 10.0 mg/kg/injection, schedule: Q01DX009 (ip), vehicle: saline
[10] = dose: 60.0 mg/kg/injection, schedule: Q01DX005 (ip), vehicle: Klucel (hydroxypropylcellulose) (HPC)
[11] = dose: 120.0 mg/kg/injection, schedule: Q01DX005 (ip), vehicle: Klucel (hydroxypropylcellulose) (HPC)
[12] = dose: 240.0 mg/kg/injection, schedule: Q01DX005 (ip), vehicle: Klucel (hydroxypropylcellulose) (HPC)
[13] = dose: 50.0 mg/kg/injection, schedule: Q01DX009 (ip), vehicle: saline with Tween-80
[14] = dose: 100.0 mg/kg/injection, schedule: Q01DX009 (ip), vehicle: saline with Tween-80
[15] = dose: 200.0 mg/kg/injection, schedule: Q01DX009 (ip), vehicle: saline with Tween-80
[16] = dose: 12.5 mg/kg/injection, schedule: Q01DX009 (ip), vehicle: saline
[17] = dose: 60.0 mg/kg/injection, schedule: Q01DX005 (ip), vehicle: saline with Tween-80
[18] = dose: 120.0 mg/kg/injection, schedule: Q01DX005 (ip), vehicle: saline with Tween-80
[19] = dose: 240.0 mg/kg/injection, schedule: Q01DX005 (ip), vehicle: saline with Tween-80

Measured: T/C

O=c1ccc2cc3c(nc2[nH]1)[nH]c1ccccc13
inactive: dose: 100.0 mg/kg/injection, schedule: Q04DX002 (ip), vehicle: Klucel (hydroxypropylcellulose) (HPC) 101 % of control | dose: 200.0 mg/kg/injection, schedule: Q04DX002 (ip), vehicle: Klucel (hydroxypropylcellulose) (HPC) 99 % of control | dose: 400.0 mg/kg/injection, schedule: Q04DX002 (ip), vehicle: Klucel (hydroxypropylcellulose) (HPC) 101 % of control

COC1(OC)CC=COC1(OC)OC
inactive: [1] 103 % of control | [2] 105 % of control | [3] 114 % of control

C1CC[N-]CC1.C1CC[N-]CC1.[Cl][Pt+2]([Cl])([Cl])[Cl]
inactive: dose: 264.0 mg/kg/injection, schedule: Q01DX009 (ip), vehicle: saline with Tween-80 86 % of control

O=C(O)[C@H](Cc1ccccc1)N1C(=O)c2ccccc2C1=O
inactive: dose: 50.0 mg/kg/injection, schedule: Q01DX005 (ip), vehicle: DMSO 105 % of control | dose: 50.0 mg/kg/injection, schedule: Q01DX005 (ip), vehicle: Klucel (hydroxypropylcellulose) (HPC) 109 % of control | dose: 100.0 mg/kg/injection, schedule: Q01DX005 (ip), vehicle: DMSO 100 % of control | dose: 100.0 mg/kg/injection, schedule: Q01DX005 (ip), vehicle: Klucel (hydroxypropylcellulose) (HPC) 105 % of control | dose: 100.0 mg/kg/injection, schedule: Q01DX005 (ip), vehicle: saline with Tween-80 99 % of control | dose: 125.0 mg/kg/injection, schedule: Q01DX001 (ip), vehicle: saline with Tween-80 102 % of control | dose: 200.0 mg/kg/injection, schedule: Q01DX005 (ip), vehicle: DMSO 100 % of control | dose: 200.0 mg/kg/injection, schedule: Q01DX005 (ip), vehicle: Klucel (hydroxypropylcellulose) (HPC) 101 % of control | dose: 200.0 mg/kg/injection, schedule: Q01DX005 (ip), vehicle: saline with Tween-80 107 % of control | dose: 250.0 mg/kg/injection, schedule: Q01DX001 (ip), vehicle: saline with Tween-80 95 % of control | dose: 400.0 mg/kg/injection, schedule: Q01DX005 (ip), vehicle: DMSO 100 % of control | dose: 400.0 mg/kg/injection, schedule: Q01DX005 (ip), vehicle: saline with Tween-80 105 % of control | dose: 500.0 mg/kg/injection, schedule: Q01DX001 (ip), vehicle: saline with Tween-80 100 % of control and 105 % of control | dose: 800.0 mg/kg/injection, schedule: Q01DX005 (ip), vehicle: DMSO 107 % of control

Cc1cc2cc(N)ccc2[se]1
inactive: dose: 50.0 mg/kg/injection, schedule: Q01DX009 (ip), vehicle: suspension in saline 98 % of control | dose: 100.0 mg/kg/injection, schedule: Q01DX009 (ip), vehicle: saline 94 % of control | dose: 100.0 mg/kg/injection, schedule: Q01DX009 (ip), vehicle: suspension in saline 108 % of control | dose: 200.0 mg/kg/injection, schedule: Q01DX009 (ip), vehicle: saline 89 % of control | dose: 200.0 mg/kg/injection, schedule: Q01DX009 (ip), vehicle: suspension in saline 101 % of control

CC(=O)NS(=O)(=O)c1ccc(N=NC2C(=O)N(C(=O)c3cccnc3)N=C2C)cc1 (centres undefined)
inactive: [4] 101 % of control | [5] 104 % of control | [6] 109 % of control

C[N+](C)(C)C
inactive: [7] 110 % of control | [8] 100 % of control | [9] 100 % of control

Cc1c(Cl)c2ccc(N(C)C)cc2[nH]c1=O
inactive: dose: 50.0 mg/kg/injection, schedule: Q01DX009 (ip), vehicle: acid diluted with saline 95 % of control | dose: 100.0 mg/kg/injection, schedule: Q01DX009 (ip), vehicle: acid diluted with saline 93 % of control | dose: 200.0 mg/kg/injection, schedule: Q01DX009 (ip), vehicle: acid diluted with saline 89 % of control

COC(=O)C1C(OS(=O)(=O)O)CCC2CN3CCc4c([nH]c5ccccc45)C3CC21 (centres undefined)
inactive: [10] 102 % of control | [11] 105 % of control | [12] 103 % of control

CCC[C@@H](O)CC(=O)N[C@@H](CO)c1ccccc1
inactive: [1] 96 % of control | [2] 95 % of control | [3] 96 % of control

CCOC(=O)N(C)C(C)Cc1ccccc1 (centres undefined)
inactive: [13] 100 % of control | [14] 104 % of control | [15] 108 % of control

O=C(C[N+]12CN3CN(CN(C3)C1)C2)c1ccc(Cl)cc1
inactive: dose: 66.0 mg/kg/injection, schedule: Q04DX003 (ip), vehicle: saline sonified 104 % of control | dose: 100.0 mg/kg/injection, schedule: Q04DX003 (ip), vehicle: saline sonified 122 % of control | dose: 150.0 mg/kg/injection, schedule: Q04DX003 (ip), vehicle: saline sonified 118 % of control

CC1(c2ccccc2)c2ccccc2N(c2ccccc2)C(=O)C1O (centres undefined)
inactive: dose: 100.0 mg/kg/injection, schedule: Q04DX003 (ip), vehicle: Klucel (hydroxypropylcellulose) (HPC) 101 % of control and 109 % of control | dose: 200.0 mg/kg/injection, schedule: Q04DX003 (ip), vehicle: Klucel (hydroxypropylcellulose) (HPC) 100 % of control and 107 % of control | dose: 400.0 mg/kg/injection, schedule: Q04DX003 (ip), vehicle: Klucel (hydroxypropylcellulose) (HPC) 100 % of control and 109 % of control

CC12CC(=O)CC1(C)CC(=O)C2 (centres undefined)
inactive: [16] 92 % of control | dose: 25.0 mg/kg/injection, schedule: Q01DX009 (ip), vehicle: saline 92 % of control | dose: 50.0 mg/kg/injection, schedule: Q01DX009 (ip), vehicle: saline 86 % of control and 97 % of control

COc1ccccc1N1C(=O)CSC1=S
inactive: [14] 86 % of control | [4] 90 % of control | [15] 90 % of control | [5] 90 % of control | [6] 100 % of control

CC1=NN(C(=O)c2ccccn2)C(c2ccccc2)/C1=N\Nc1ccc(S(N)(=O)=O)cc1 (centres undefined)
inactive: [10] 87 % of control | [11] 93 % of control | [12] 87 % of control

CC(C)C12CN1C2(c1ccccc1)c1ccccc1 (centres undefined)
inactive: [17] 100 % of control | [18] 106 % of control | [19] 107 % of control

COc1ccc(/C=N/NC(=O)/C(C#N)=C/c2ccc(OC)cc2)cc1
inactive: dose: 100.0 mg/kg/injection, schedule: Q04DX003 (ip), vehicle: saline 110 % of control | dose: 200.0 mg/kg/injection, schedule: Q04DX003 (ip), vehicle: saline 105 % of control | dose: 400.0 mg/kg/injection, schedule: Q04DX003 (ip), vehicle: saline 95 % of control

Cc1cc(C)c2c(c1N)C(=O)CCO2
inactive: dose: 7.5 mg/kg/injection, schedule: Q01DX005 (ip), vehicle: saline with Tween-80 96 % of control | dose: 15.0 mg/kg/injection, schedule: Q01DX005 (ip), vehicle: saline with Tween-80 100 % of control | dose: 30.0 mg/kg/injection, schedule: Q01DX005 (ip), vehicle: saline with Tween-80 102 % of control

Nc1ccncc1N
inactive: [7] 94 % of control | dose: 3.12 mg/kg/injection, schedule: Q01DX009 (ip), vehicle: saline 101 % of control | [8] 106 % of control | dose: 6.25 mg/kg/injection, schedule: Q01DX009 (ip), vehicle: saline 97 % of control | [9] 100 % of control | [16] 103 % of control | dose: 20.0 mg/kg/injection, schedule: Q01DX009 (ip), vehicle: saline 93 % of control

O=S(=O)(c1ccc(Cl)cc1)N(CCCCN(S(=O)(=O)c1ccc(Cl)cc1)S(=O)(=O)c1ccc(Cl)cc1)S(=O)(=O)c1ccc(Cl)cc1
inactive: [17] 99 % of control | [18] 93 % of control | [19] 90 % of control

O=C(CNC(=O)c1ccc(Cl)cc1Cl)N/N=C/c1cccc([N+](=O)[O-])c1
inactive: dose: 3.13 mg/kg/injection, schedule: Q01DX009 (ip), vehicle: saline with Tween-80 91 % of control | dose: 6.25 mg/kg/injection, schedule: Q01DX009 (ip), vehicle: saline with Tween-80 92 % of control | dose: 12.5 mg/kg/injection, schedule: Q01DX009 (ip), vehicle: saline with Tween-80 106 % of control

O=C(NC1C=Nc2ccc(Cl)cc2NC1=O)c1ccc2ccccc2c1 (centres undefined)
inactive: [10] 90 % of control | [11] 91 % of control | [12] 92 % of control

[O-][n+]1ccccc1C(O)CSc1ccccc1 (centres undefined)
inactive: [13] 100 % of control | [14] 101 % of control | [15] 100 % of control
